Patent US20230390289A1, “COMBINED USE OF IN10018 AND PLD” (INXMED (NANJING) CO., LTD., priority 2021, published 2023)

Assay: Study IN10018-006 safety: adverse events (CTCAE)
Settings: female, human, in vivo
Method: IN10018 in combination with pegylated liposomal doxorubicin (PLD) for the treatment of platinum-resistant ovarian cancer is currently being evaluated in a Phase Ib/II clinical study (IN10018-006) in China. The IN10018 was used as its tartrate, and the PLD was used as commercially available doxorubicin hydrochloride liposome injection (common name). Study subjects received IN10018 100 mg once daily (QD) orally combined with PLD 40 mg/m^2 by intravenous infusion once every 4 weeks (Q4W). A treatment cycle was 28 days.
By Jul. 30, 2021, a total of 26 patients with platinum-resistant ovarian cancer had been enrolled in the study. All subjects received at least one study drug treatment and were included in the safety analysis; 18 subjects had at least one post-baseline tumor imaging evaluation and were included in efficacy analysis.
By Jun. 22, 2021, 21 of the 22 subjects enrolled had adverse events (AEs), and according to the investigator's assessment, 20 of them had AEs related to IN10018. Regardless of the correlation, the system organ classes (SOC) of AE reported by at least 2 subjects were investigations (90.9%), gastrointestinal disorders (81.8%), renal and urinary disorders (72.7%), general disorders and administration site conditions (59.1%), metabolism and nutrition disorders (59.1%), infections and infestations (54.5%), blood and lymphatic system disorders (50.0%), respiratory, thoracic and mediastinal disorders (27.3%), musculoskeletal and connective tissue disorders (22.7%), skin and subcutaneous tissue disorders (18.2%), nervous system disorders (13.6%), cardiac disorders (18.2%) and psychiatric disorders (9.1%).
By Jun. 22, 2021, a total of 5 of the 22 subjects enrolled had serious adverse events (SAEs), of which 3 subjects reported SAEs related to IN10018: loss of appetite (grade 3, related to both IN10018 and PLD), constipation (grade 2, related to both IN10018 and PLD), abdominal distension (grade 3, related to both IN10018 and PLD), and elevated creatinine (grade 2, related to both IN10018 and PLD). No subject had adverse events leading to dose reduction of IN10018. Adverse events leading to discontinuation of study treatment were reported by 2 subjects, wherein loss of appetite (grade 3) leading to discontinuation in 1 subject was associated with both IN10018 and PLD. […] There were no adverse events leading to death in the study.

COc1cc(C(=O)NC2CCN(C)CC2)c(F)cc1Nc1ncc(C(F)(F)F)c(Oc2cccc3c2C(=O)N(C)C3)n1 [IN10018, 2-fluoro-5-methoxy-4-[(4-(2-methyl-3-oxo-2,3-dihydro-1H-isoindole-4-oxy)-5-trifluoromethyl-pyrimidin-2-yl)amino]-N-(1-methyl-piperidin-4-yl)benzamide]
SAE abdominal distension, grade: 3 grade | SAE constipation, grade: 2 grade | SAE elevated creatinine, grade: 2 grade | SAE loss of appetite, grade: 3 grade
